Experimental data from PMC4106346, “The Oligomeric States of the Purified Sigma-1 Receptor Are Stabilized by Ligands” (The Journal of Biological Chemistry, 2014).
Structures can show the parent of a compound that is named as a salt.

Key:
sigma-1 receptor (S1R) [1] = molecular target: T1, sigma-1 receptor (S1R) (Cavia porcellus, UniProt Q60492, H97A); experiment: radioligand filtration binding, […] (+)-[3H]pentazocine
T1 construct: gene SIGMAR1; MBP-4A-S1R

sigma-1 receptor (S1R) [2] = molecular target: T2, sigma-1 receptor (S1R) (Cavia porcellus, UniProt Q60492); experiment: titration by ligand stabilization of the oligomer, analytical SEC with tryptophan fluorescence; format: binding; design: gene SIGMAR1
sigma-1 receptor (S1R) [3] = molecular target: T2, sigma-1 receptor (S1R); experiment: ligand stabilization of the purified oligomer, analytical SEC; format: binding; design: gene SIGMAR1; MBP-4A-S1R, purified oligomer (peak 1)
sigma-1 receptor (S1R) [4] = molecular target: T2, sigma-1 receptor (S1R); experiment: ligand stabilization of the purified oligomer at […] °C, analytical SEC; format: binding; design: gene SIGMAR1; MBP-4A-S1R, purified oligomer (peak 1)

T2 sequence (Q60492 whole entry): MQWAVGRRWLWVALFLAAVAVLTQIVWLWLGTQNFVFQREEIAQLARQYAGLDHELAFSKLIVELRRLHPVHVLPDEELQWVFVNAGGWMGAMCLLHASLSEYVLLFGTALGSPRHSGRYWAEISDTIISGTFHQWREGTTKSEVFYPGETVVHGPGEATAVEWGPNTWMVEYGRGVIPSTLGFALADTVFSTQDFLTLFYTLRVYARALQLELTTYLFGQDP
T1 sequence (Q60492 whole entry H97A): as the sequence (Q60492 whole entry) above, with H97A counted along it

CC(C)=CCN1CC[C@]2(C)c3cc(O)ccc3C[C@H]1[C@H]2C [(+)-pentazocine]
% of nonmutated binding (sigma-1 receptor (S1R) [1]): ~ 50 % of nonmutated binding

CN(C)CCN(C)CCc1ccc(Cl)c(Cl)c1 [BD-1047, N-[2-(3,4-dichlorophenyl)ethyl]-N-methyl-2-(dimethylamino)ethylamine dihydrobromide]
Kd (sigma-1 receptor (S1R) [2]): ~7 nM

CCCCCCCCCCCCC/C=C/[C@@H](O)[C@@H](N)CO [sphingosine]
ligand stabilization of the purified oligomer, analytical SEC (sigma-1 receptor (S1R) [3]): the natural membrane lipid sphingosine gave a stabilizing interaction that was close to that of many of the synthetic ligands

c1ccc(CCCCN2CCC(c3ccccc3)CC2)cc1 [4-PPBP, 4-phenyl-1-(4-phenylbutyl)piperidine maleate]
ligand stabilization of the purified oligomer at 37 °C, analytical SEC (sigma-1 receptor (S1R) [4]): Tight-binding ligands 4-PPBP, BD-1047 and others stabilized the oligomeric states
